System: HPPD enzymes from different organisms
Experiment: HPPD activity assay, summary statement
Assay type: biochemical
Details: all HPPD enzymes from different organisms of Table 12
Procedure: The activity assay for HPPD is based on the analysis of homogentisic acid by reversed phase HPLC.
The assay mixture can contain 150 mM potassium phosphate buffer pH 7.0, 50 mM L-ascorbic acid, 100 μM Catalase (Sigma-Aldrich), 1 μM FeSO4 and 0.2 units of purified HPPD enzyme in a total volume of 505 μl. 1 unit is defined as the amount of enzyme that is required to produce 1 nmol of HGA per minute at 20° C.
The reaction is allowed to proceed for 45 min at room temperature. The reaction is stopped by the addition of 50 μl of 4.5 M phosphoric acid. The sample is filtered using a […] pore size PVDF filtration device. 5 μl of the cleared sample is analyzed on an UPLC HSS T3 column (particle size 1.8 μm, dimensions 2, 1×50 mm; Waters) by isocratic elution using 90% 20 mM NaH2PO4 pH 2.2, 10% methanol (v/v).
HGA is detected electrochemically at 750 mV (mode: DC; polarity: positive) and quantified by integrating peak areas (Empower software; Waters).
Inhibitors are dissolved in DMSO (dimethylsulfoxide) to a concentration of 0.5 mM. From this stock solution serial five-fold dilutions are prepared in DMSO, which are used in the assay. The respective inhibitor solution accounts for 1% of the assay volume. Thus, final inhibitor concentrations range from 5 μM to 320 pM, respectively. […] IC50 values are calculated using non-linear regression. […]

## Cc1c(C(=O)c2cnn(C)c2O)ccc(S(C)(=O)=O)c1C1=NOCC1 [Inhibitor 1, [3-(4,5-dihydroisoxazol-3-yl)-2-methyl-4-methylsulfonyl-phenyl]-(5-hydroxy-1-methyl-pyrazol-4-yl)methanone]
  fold more resistant in respect to the reference SEQ ID NO:53: at least 1.7 fold
